In patent US6358995B1, “Carboxylic acid derivatives having fused rings” (Eisai Co., Ltd., priority 1996, dated 2002):

Tests used:
Test in all cases: Transcription accelerating activity through RARs (PLAP reporter in COS-1 cells)
Type in all cases: cell-based
Conditions in all cases: relative to ED30 of all-trans retinoic acid = 1, ED30 = concentration giving 30% of activity induced by 1 μM all-trans retinoic acid
RAR-α = target: T1, RAR-α (Homo sapiens, UniProt P10276)
T1 construct: expressed in transfected cells; host or cells: COS-1 (African green monkey kidney cells), transient lipofection
T1 sequence (P10276 1-462): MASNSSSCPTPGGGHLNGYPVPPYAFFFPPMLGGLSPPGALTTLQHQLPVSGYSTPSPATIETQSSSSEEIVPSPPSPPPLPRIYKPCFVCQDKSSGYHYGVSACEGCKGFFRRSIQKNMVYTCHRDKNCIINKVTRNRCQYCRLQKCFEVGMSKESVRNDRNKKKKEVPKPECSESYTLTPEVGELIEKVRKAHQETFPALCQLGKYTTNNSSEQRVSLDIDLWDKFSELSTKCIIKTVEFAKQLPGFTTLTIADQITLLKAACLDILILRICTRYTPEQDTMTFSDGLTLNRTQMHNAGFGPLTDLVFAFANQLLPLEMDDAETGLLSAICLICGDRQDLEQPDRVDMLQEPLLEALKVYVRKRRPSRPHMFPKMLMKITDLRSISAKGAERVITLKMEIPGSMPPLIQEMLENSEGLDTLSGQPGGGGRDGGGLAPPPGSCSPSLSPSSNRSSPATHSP
Excerpt: (§1) Measurement of the Activities of Accelerating Trans-cription Through RARs
(§2) Human RAR Expression Vectors and secretory alkaline phosphatase (PLAP) gene vectors (PLAP vectors) containing in a state integrated into the upstream a competent sequence whose expression is […] through binding with RAR depending on a ligand were temporarily transferred into COS-1 (African green monkey kidney cells), and the PLAP which had been produced depending on a ligand and secreted into a culture medium was analyzed by the chemiluminescence method to determine the transcription-accelerating activity of each compound. Further, the selectivity of each compound among RARs was determined by comparing the transcription accelerating activities of the compound for the receptors with each other.
(§3) On a 60-mm culture dish were scattered 2.5×10^4 COS-1 cells. Four days after, human RAR α, β and γ expression vectors and PLAP vectors were transferred into the cells each in an amount of 4 μg by the lipofection method. Another day after, the resulting cells were recovered, and put on a 96-well culture plate in an amount of 2×10^4 per unit well. Four hours after, the cells were put on a medium containing charcoal-treated fetal bovine serum, followed by the addition of a dilution of all-trans retinoic acid or a test compound. After the lapse of 36 hours, the supernatant was recovered and the resulting samples were treated at 65° C. for 10 minutes to eliminate the non-specific activity. 15 μl of each sample was mixed with 60 μl of a 28 mM sodium carbonate buffer(pH10), followed by the addition of 75 μl of Smilight (trade name, a product of Sumitomo Metal Industries, Ltd., substrate for chemiluminescence). The resulting mixture was reacted at 37° C. for 30 minutes and the intensity of luminescence was determined. The compounds which will be described below induced the transcription activities of RARs dependently on the concentration.

RAR-β = target: T2, RAR-β (Homo sapiens, UniProt P10826)
T2 construct: expressed in transfected cells; host or cells: COS-1 (African green monkey kidney cells), transient lipofection
T2 sequence (P10826 1-455): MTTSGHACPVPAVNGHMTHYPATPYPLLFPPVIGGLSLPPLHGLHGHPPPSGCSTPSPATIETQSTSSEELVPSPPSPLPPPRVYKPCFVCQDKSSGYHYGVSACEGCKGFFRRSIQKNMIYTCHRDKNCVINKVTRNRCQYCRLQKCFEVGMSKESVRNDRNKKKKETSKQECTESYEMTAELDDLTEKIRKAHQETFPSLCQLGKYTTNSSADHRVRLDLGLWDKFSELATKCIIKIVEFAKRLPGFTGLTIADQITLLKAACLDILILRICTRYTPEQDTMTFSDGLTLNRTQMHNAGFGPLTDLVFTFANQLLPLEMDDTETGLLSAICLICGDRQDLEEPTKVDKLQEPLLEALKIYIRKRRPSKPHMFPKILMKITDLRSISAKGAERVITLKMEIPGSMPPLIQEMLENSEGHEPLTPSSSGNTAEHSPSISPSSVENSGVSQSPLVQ
Excerpt: as §1, §2, §3

RAR-γ = target: T3, RAR-γ (Homo sapiens, UniProt P13631)
T3 construct: expressed in transfected cells; host or cells: COS-1 (African green monkey kidney cells), transient lipofection
T3 sequence (P13631 1-454): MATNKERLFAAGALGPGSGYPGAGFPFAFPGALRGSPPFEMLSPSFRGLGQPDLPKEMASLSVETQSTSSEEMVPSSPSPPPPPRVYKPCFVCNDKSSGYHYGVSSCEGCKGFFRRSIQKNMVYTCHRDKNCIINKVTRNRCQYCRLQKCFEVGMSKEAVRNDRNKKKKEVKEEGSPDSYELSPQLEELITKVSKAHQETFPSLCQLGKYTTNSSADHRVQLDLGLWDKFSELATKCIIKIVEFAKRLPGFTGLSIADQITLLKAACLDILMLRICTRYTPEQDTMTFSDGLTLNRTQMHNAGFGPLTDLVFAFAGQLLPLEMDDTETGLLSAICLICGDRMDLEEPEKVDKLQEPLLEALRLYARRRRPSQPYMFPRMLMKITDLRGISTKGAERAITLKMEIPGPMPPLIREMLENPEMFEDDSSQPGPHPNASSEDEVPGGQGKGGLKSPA
Excerpt: as §1, §2, §3

| Transcription accelerating activity Relative ED30 RAR-α (RAR-α) | Transcription accelerating activity Relative ED30 RAR-β (RAR-β) | Transcription accelerating activity Relative ED30 RAR-γ (RAR-γ) | SMILES |
| --- | --- | --- | --- |
| 0.35 | 65 | 130 | Cc1ccc(C)c2sc(-c3ccc(-c4ccc(C(=O)O)cc4)[nH]3)cc12 [Example 77, 4-{2-[5-(4,7-Dimethylbenzothiophen-2-yl)pyrrolyl]}benzoic acid] |
| 3.1 | 450 | 1400 | CCc1ccc(OC)c2ccc(-c3ccc(-c4ccc(C(=O)O)cc4)[nH]3)cc12 [Example 90, 4-{2-[5-(5-Methoxy-8-ethylnaphthalen-2-yl)pyrrolyl]}benzoic acid] |
| 0.47 | 210 | 790 | Cc1ccc(F)c2cc(-c3ccc(-c4ccc(C(=O)O)cc4)[nH]3)oc12 [Example 110, 4-{2-[5-(4-Fluoro-7-methylbenzofuran-2-yl)pyrrolyl]}benzoic acid] |
| 0.80 | 24 | 150 | Cc1cc(C)c2cc(-c3ccc(-c4ccc(C(=O)O)cc4)[nH]3)oc2c1C [Example 113, 4-{2-[5-(4,6,7-Trimethylbenzofuran-2-yl)pyrrolyl]}benzoic acid] |
| 4.4 | 1050 | 2400 | Cc1cccc2c1C=C(c1ccc(-c3ccc(C(=O)O)cc3)[nH]1)CO2 [Example 129, 4-{2-[5-(5-Methyl-2H-chromen-3-yl)pyrrolyl]}benzoic acid] |
| 3.2 | 250 | 780 | CC1=CCOc2ccc(-c3ccc(-c4ccc(C(=O)O)cc4)[nH]3)cc21 [Example 133, 4-{2-[5-(4-Methyl-2H-chromen-6-yl)pyrrolyl]}benzoic acid] |

Continued, molecule first:

| SMILES | Transcription accelerating activity Relative ED30 RAR-α (RAR-α) | Transcription accelerating activity Relative ED30 RAR-β (RAR-β) | Transcription accelerating activity Relative ED30 RAR-γ (RAR-γ) |
| --- | --- | --- | --- |
| O=C(O)c1ccc(-c2ccc(-c3cc4c(F)ccc(Cl)c4o3)[nH]2)cc1 [Example 42, 4-{2-[5-(4-Fluoro-7-chlorobenzofuran-2-yl)pyrrolyl]}benzoic acid] | 0.33 | 91 | 790 |
| Cc1c(-c2ccc(-c3ccc(C(=O)O)cc3)[nH]2)oc2c(Cl)ccc(Cl)c12 [Example 46, 4-{2-[5-(4,7-Dichloro-3-methylbenzofuran-2-yl)pyrrolyl]}benzoic acid] | 0.63 | 14 | 240 |
| Cc1ccc(C)c2c(C)c(-c3ccc(-c4ccc(C(=O)O)cc4)[nH]3)oc12 [Example 47, 4-{2-[5-(3,4,7-Trimethylbenzofuran-2-yl)pyrrolyl]}benzoic acid] | 0.80 | 2.4 | 41 |
| Cc1cc(C)c2oc(-c3ccc(-c4ccc(C(=O)O)cc4)[nH]3)cc2c1 [Example 50, 4-{2-[5-(5,7-Dimethylbenzofuran-2-yl)pyrrolyl]}benzoic acid] | 0.38 | 280 | 710 |
| Cc1ccc(Cl)c2oc(-c3ccc(-c4ccc(C(=O)O)cc4)[nH]3)cc12 [Example 53, 4-{2-[5-(7-Chloro-4-methylbenzofuran-2-yl)pyrrolyl]}benzoic acid] | 0.17 | 26 | 430 |
| CCc1cccc2cc(-c3ccc(-c4ccc(C(=O)O)cc4)[nH]3)oc12 [Example 55, 4-{2-[5-(7-Ethylbenzofurn-2-yl)pyrrolyl]}benzoic acid] | 0.20 | 31 | 120 |
| O=C(O)c1ccc(-c2ccc(-c3cc4c(Cl)cccc4o3)[nH]2)cc1 [Example 60, 4-{2-[5-(4-Chlorobenzofuran-2-yl)pyrrolyl]}benzoic acid] | 0.72 | 110 | 750 |
| Cc1ccc(Cl)c2sc(-c3ccc(-c4ccc(C(=O)O)cc4)[nH]3)cc12 [Example 75, 4-{2-[5-(7-Chloro-4-methylbenzothiophen-2-yl)pyrrolyl]}benzoic acid] | 0.80 | 150 | 2000 |
| Cc1ccc(C)c2c1C=C(c1ccc(-c3ccc(C(=O)O)cc3)[nH]1)CO2 [Example 127, 4-{2-[5-(5,8-Dimethyl-2H-chromen-3-yl)pyrrolyl]}benzoic acid] | 1.8 | 240 | 3600 |
